The target of assay [1] is recombinant SARS-CoV-2 Main protease (Mpro) (Severe acute respiratory syndrome coronavirus 2 (2019-nCoV) (SARS-CoV-2), UniProt P0DTD1). Kind of assay: Cov Mpro Biochemical IC50 Assay. Particulars: read-out: MPro IC50.
The subject of assay [2] is SARS-CoV-2-NLuc. Kind of assay: microbe, parasite or virus in culture. It counts as cell-based, SARS Coronavirus 2.
Setting [3] is: recombinant SARS-CoV-2 Mpro 7.5 nM, fluorogenic peptide substrate 40 μM.
[4] abbreviates: Severe acute respiratory syndrome coronavirus, 48 h, read-out: MPro EC50.
[5] abbreviates: Severe acute respiratory syndrome coronavirus, 48 h; read-out: MPro EC50.
The mark [6] stands for this setting: recombinant SARS-CoV-2 Mpro, fluorogenic peptide substrate.

Each structure is given as a SMILES string. Read-outs that look alike come from different tables or passages of the source. Where only a bound is given, the exact number is not on record here.

One may read the IC50 as the concentration that gives 50% inhibition. As a reminder, the EC50 is the concentration needed to bring the measured effect to its halfway point.

For the compound `COc1cc(-c2cc3c(s2)c(=O)n(-c2cncc4nc(-c5ccc(F)cc5)n(C)c24)c(=O)n3CCC#N)c(Cl)cc1F` [Example 758], the half-maximal inhibitory concentration (IC50) in assay [1] (setting [3]) is 18.9 nM. In addition, the EC50 in assay [2] (setting [4]) is 142 nM.

Take `COc1ccc(C#N)c(-c2cc3[nH]c(=O)n(-c4cncc5ccc(N6CCOCC6)cc45)c(=O)c3s2)c1` [Example 433]: the IC50 in assay [1] (setting [3]) was determined as 7.8 nM. Besides, in assay [2] (setting [4]), the concentration for a half-maximal effect (EC50) worked out at 69.5 nM. Consider `Cn1nnc2cncc(-n3c(=O)c4sc(-c5cc(F)c(F)cc5Cl)cc4n(CCC#N)c3=O)c21` [Example 796], for which, in assay [1] (setting [3]), the half-maximal inhibitory concentration (IC50) worked out at 40.5 nM. Moreover, the EC50 in assay [2] (setting [5]) is 124 nM.

Take `COc1cccc(C#N)c1-c1cc2[nH]c(=O)n(-c3cncc4ccccc34)c(=O)c2s1` [Example 536]: in assay [1] (setting [3]), the IC50 is 21.2 nM. In assay [2] (setting [4]), the concentration giving a half-maximal response (EC50) is 46.4 nM. Turning to `O=c1[nH]c2cc(-c3ccccc3Cl)sc2c(=O)n1-c1cncc2sccc12` [Example 336], in assay [1] (setting [6]), the half-inhibitory concentration (IC50) was 4.68 nM. Besides, in assay [2] (setting [4]), the EC50 was found to be 7.02 nM. For `O=c1[nH]c2cc(-c3c(Cl)cccc3-c3ccncc3)ccc2c(=O)n1-c1cncc2ccccc12` [Example 329], in that order: 9.77 nM and 22.3 nM. For `O=c1[nH]c2cc(-c3ccccc3Cl)sc2c(=O)n1-c1cncc2c1CCC2` [Example 107], in that order: 31.8 nM and 71.7 nM.

For the compound `O=c1[nH]c2cc(-c3ccccc3C3CC3)sc2c(=O)n1-c1cncc2ccccc12` [Example 16], the concentration for half-maximal inhibition (IC50) in assay [1] (setting [6]) turned out to be 164 nM. In addition, the EC50 in assay [2] (setting [4]) was 182 nM.

Consider `COc1cc(-c2cc3c(s2)c(=O)n(-c2cncc4cnn(C)c24)c(=O)n3CCC#N)c(C#N)cc1F` (single isomer, unassigned) [Example 1004, 2-[1-(2-cyanoethyl)-3-(1-methylpyrazolo[4,3-c]pyridin-7-yl)-2,4-dioxo-thieno[3,2-d]pyrimidin-6-yl]-5-fluoro-4-methoxy-benzonitrile], for which the IC50 in assay [1] (setting [3]) turned out to be 71.5 nM. In addition, the EC50 in assay [2] (read-out: MPro EC50) is 112 nM.

On to `COc1ccc(Cl)c(-c2cc3[nH]c(=O)n(-c4cncc(C)c4OCC(F)(F)F)c(=O)c3s2)c1` [Example 373], for which the half-inhibitory concentration (IC50) in assay [1] (setting [6]) stood at 14.6 nM. For the same compound, in assay [2] (setting [5]), the EC50 is 46.9 nM. Regarding `COc1cc(-c2cc3c(s2)c(=O)n(-c2cncc(F)c2C)c(=O)n3CCC#N)c(Cl)cc1F` [Example 1022, 3-[6-(2-chloro-4-fluoro-5-methoxy-phenyl)-3-(5-fluoro-4-methyl-3-pyridyl)-2,4-dioxo-thieno[3,2-d]pyrimidin-1-yl]propanenitrile], in assay [1] (setting [3]), the IC50 was 7.3 nM. The concentration for a half-maximal effect (EC50) in assay [2] (setting [5]) was determined as 9.53 nM. Turning to `COc1cc(Cl)c(-c2cc3[nH]c(=O)n(-c4cncc5ccccc45)c(=O)c3s2)cc1C` [Example 723], the IC50 in assay [1] (setting [3]) was 21.1 nM. Further, in assay [2] (setting [4]), the 50% effective concentration (EC50) was 17.2 nM.

In the case of `COc1cnc(C#N)c(-c2cc3c(s2)c(=O)n(-c2cncc(C)c2)c(=O)n3CCC#N)c1` [Example 887], the IC50 in assay [1] (setting [3]) came to 10.4 nM. For the same compound, in assay [2] (setting [5]), the concentration for a half-maximal effect (EC50) stood at 65.4 nM. `Cc1ccc2cncc(-n3c(=O)[nH]c4cc(-c5ccccc5Cl)ccc4c3=O)c2c1` [Example 109]: the 50% inhibitory concentration (IC50) in assay [1] (setting [6]) turned out to be 265 nM. For the same compound, in assay [2] (setting [4]), the 50% effective concentration (EC50) is 423 nM. In the case of `COc1cc(-c2cc3c(s2)c(=O)n(-c2cncc4cccnc24)c(=O)n3C)c(Cl)cc1F` [Example 994], in assay [1] (setting [3]), the half-inhibitory concentration (IC50) was found to be 8.46 nM. Moreover, the concentration for a half-maximal effect (EC50) in assay [2] (setting [4]) was found to be 8.41 nM. As to `Cc1noc(C)c1-c1cc2[nH]c(=O)n(-c3cncc(C4CC4)c3)c(=O)c2s1` [Example 368], the half-maximal inhibitory concentration (IC50) in assay [1] (setting [6]) stood at 411 nM. Also, the EC50 in assay [2] (setting [5]) came to 1920 nM.

Regarding `Cc1nocc1-c1cccc(Cl)c1-c1ccc2c(=O)n(-c3cncc4ccccc34)c(=O)[nH]c2c1` [Example 259], the half-inhibitory concentration (IC50) in assay [1] (setting [6]) is 189 nM. Also, the EC50 in assay [2] (setting [4]) was found to be 113 nM. Take `O=c1[nH]c2cc(-c3ccccc3Cl)sc2c(=O)n1-c1cncc2ccc(N3CCOCC3)cc12` (single isomer, unassigned) [Example 443, 6-(2-chlorophenyl)-3-(6-morpholinoisoquinolin-4-yl)thieno[3,2-d]pyrimidine-2,4(1H,3H)-dione]: the concentration for half-maximal inhibition (IC50) in assay [1] (setting [3]) stood at 18.8 nM. Moreover, in assay [2] (read-out: MPro EC50), the concentration giving a half-maximal response (EC50) is 45 nM. Regarding `Cc1cnnc(-n2c(=O)c3sc(-c4ccccc4C#N)cc3n(CCC#N)c2=O)c1` [Example 813], the IC50 in assay [1] (setting [3]) was 32.5 nM. Also, the EC50 in assay [2] (setting [5]) was determined as 362 nM. In the case of `COc1ccc2cncc(-n3c(=O)[nH]c4cc(-c5c(Cl)cccc5-c5cn6ncnc6c6c5CCC6)sc4c3=O)c2c1` [Example 564], the concentration for half-maximal inhibition (IC50) in assay [1] (setting [3]) came out at 14.6 nM. In addition, the EC50 in assay [2] (setting [4]) is 52.5 nM. Take `O=c1c2sc(-c3ccccc3Cl)cc2n(Cc2cccnn2)c(=O)n1-c1cncc2ccccc12` [Example 154]: the concentration for half-maximal inhibition (IC50) in assay [1] (setting [6]) is 124 nM. Besides, in assay [2] (setting [4]), the concentration giving a half-maximal response (EC50) was 193 nM. As for `Cn1ncc2cncc(-n3c(=O)c4sc(-c5cc(F)c(F)cc5Cl)cc4n(CCC#N)c3=O)c21` (single isomer, unassigned) [Example 1077, 3-[6-(2-chloro-4,5-difluoro-phenyl)-3-(1-methylpyrazolo[4,3-c]pyridin-7-yl)-2,4-dioxo-thieno[3,2-d]pyrimidin-1-yl]propanenitrile], in assay [1] (setting [3]), the IC50 is 485 nM. In assay [2] (read-out: MPro EC50), the EC50 is over 1000 nM. In the case of `COc1cc(-c2cc3[nH]c(=O)n(-c4cncc5ccn(C)c45)c(=O)c3s2)c(Cl)cc1F` [Example 454, 6-(2-chloro-4-fluoro-5-methoxyphenyl)-3-(1-methyl-1H-pyrrolo[3,2-c]pyridin-7-yl)thieno[3,2-d]pyrimidine-2,4(1H,3H)-dione], the IC50 in assay [1] (setting [3]) was 4.8 nM. The half-maximal effective concentration (EC50) in assay [2] (setting [4]) worked out at 3.89 nM. For `N#CCCn1c(=O)n(-c2cncc(CO)c2)c(=O)c2sc(-c3ccccc3C#N)cc21` [Example 1101], in that order: 36.3 nM and over 1000 nM.

Turning to `COc1cc(-c2cc3c(=O)n(-c4cncc5ccccc45)c(=O)n(CCC#N)c3s2)c(Cl)cc1F` [Example 867], the half-inhibitory concentration (IC50) in assay [1] (setting [3]) stood at 9.82 nM. Also, in assay [2] (setting [4]), the concentration for a half-maximal effect (EC50) worked out at 13.1 nM.

`COc1cc(-c2cc3c(s2)c(=O)n(-c2cncc4cccc(C)c24)c(=O)n3CCC#N)c(Cl)cc1F` (atropisomer, axis not shown) [Example 920]: in assay [1] (setting [3]), the half-maximal inhibitory concentration (IC50) was found to be 5.5 nM. In addition, the EC50 in assay [2] (setting [4]) worked out at 4.25 nM.

On to `N#Cc1cnccc1-c1cc2[nH]c(=O)n(-c3cncc4ccccc34)c(=O)c2s1` [Example 531], for which, in assay [1] (setting [3]), the IC50 stood at 50 nM. Also, the EC50 in assay [2] (setting [4]) was found to be 518 nM. For `COc1ccc(Cl)c(-c2cc3[nH]c(=O)n(-c4cncc5ccc(N6CCn7nnc(C)c7C6)cc45)c(=O)c3s2)c1` [Example 606], in that order: under 2.54 nM and 28.1 nM. For `COc1cnc(Cl)c(-c2cc3c(s2)c(=O)n(-c2cncc4cnn(C)c24)c(=O)n3CCC#N)c1` [Example 1019, 3-(6-(2-chloro-5-methoxypyridin-3-yl)-3-(1-methyl-1H-pyrazolo[4,3-c]pyridin-7-yl)-2,4-dioxo-3,4-dihydrothieno[3,2-d]pyrimidin-1(2H)-yl)propanenitrile], in that order: 8.48 nM and 16.3 nM. Consider `O=c1[nH]c2cc(-c3c(Cl)cccc3-c3ccnnc3)sc2c(=O)n1-c1cncc2ccccc12` [Example 112], for which the IC50 in assay [1] (setting [6]) was found to be 5.19 nM. In addition, in assay [2] (setting [4]), the half-maximal effective concentration (EC50) was 39.2 nM. For `COc1cc(-c2cc3[nH]c(=O)n(-c4cncc5ccc(C)nc45)c(=O)c3s2)c(Cl)cc1F` (single isomer, unassigned) [Example 1035, 6-(2-chloro-4-fluoro-5-methoxyphenyl)-3-(2-methyl-1,6-naphthyridin-8-yl)thieno[3,2-d]pyrimidine-2,4(1H,3H)-dione], the IC50 in assay [1] (setting [3]) was determined as 26.3 nM. Besides, in assay [2] (read-out: MPro EC50), the EC50 was found to be 24.4 nM. For the compound `COc1cc(-c2cc3c(s2)c(=O)n(-c2cncc(Cl)c2C)c(=O)n3CCC#N)c(C#N)cc1F` [Example 806], the 50% inhibitory concentration (IC50) in assay [1] (setting [3]) turned out to be 5.15 nM. Also, the half-maximal effective concentration (EC50) in assay [2] (setting [5]) turned out to be 6.99 nM. In the case of `C#Cc1cccc(Cl)c1-c1ccc2c(=O)n(-c3cncc4ccccc34)c(=O)[nH]c2c1` [Example 159, 7-(2-chloro-6-ethynyl-phenyl)-3-(4-isoquinolyl)-1H-quinazoline-2,4-dione], the IC50 in assay [1] (setting [6]) came out at 988 nM. Besides, the concentration giving a half-maximal response (EC50) in assay [2] (setting [4]) is 335 nM. Turning to `COc1cc(-c2cc3[nH]c(=O)n(-c4cncc5ccc(C(C)(C)O)cc45)c(=O)c3s2)c(Cl)cc1F` [Example 551, 6-(2-chloro-4-fluoro-5-methoxyphenyl)-3-(6-(2-hydroxypropan-2-yl)isoquinolin-4-yl)thieno[3,2-d]pyrimidine-2,4(1H,3H)-dione], the half-maximal inhibitory concentration (IC50) in assay [1] (setting [3]) came to 5.36 nM. The EC50 in assay [2] (setting [4]) amounted to 23.6 nM. `O=c1[nH]c2cc(-c3c(Cl)cccc3-c3ccc4c(c3)OCCO4)ccc2c(=O)n1-c1cncc2ccccc12` [Example 358]: the 50% inhibitory concentration (IC50) in assay [1] (setting [6]) is 177 nM. For the same compound, in assay [2] (setting [4]), the EC50 came out at 113 nM. Consider `O=c1[nH]c2cc(-c3ccccc3Cl)sc2c(=O)n1-c1cnccc1N1CCN(C2COC2)CC1` [Example 117, 6-(2-chlorophenyl)-3-(4-(4-(oxetan-3-yl)piperazin-1-yl)pyridin-3-yl)thieno[3,2-d]pyrimidine-2,4(1H,3H)-dione], for which the 50% inhibitory concentration (IC50) in assay [1] (setting [6]) came to 156 nM. Further, the concentration for a half-maximal effect (EC50) in assay [2] (setting [5]) is 627 nM. As for `O=c1[nH]c2cc(-c3cc(Cl)ccc3Cl)ccc2c(=O)n1-c1cncc2ccccc12` [Example 60], the IC50 in assay [1] (setting [6]) came to 192 nM. Besides, the concentration giving a half-maximal response (EC50) in assay [2] (setting [4]) worked out at 227 nM.

Take `NC(=O)COc1cccc(Cl)c1-c1ccc2c(=O)n(-c3cncc4ccccc34)c(=O)[nH]c2c1` [Example 91]: the IC50 in assay [1] (setting [6]) is 216 nM. Moreover, the EC50 in assay [2] (setting [4]) is 1140 nM. For `O=c1[nH]c2cc(-c3c(Cl)cccc3-c3ccnc(C(F)(F)F)c3)ccc2c(=O)n1-c1cncc2ccccc12` [Example 334], in that order: 78.6 nM and 81.9 nM. With `CCn1ncc2cncc(-n3c(=O)[nH]c4cc(-c5cc(OC)c(F)cc5Cl)sc4c3=O)c21` [Example 732], the concentration for half-maximal inhibition (IC50) in assay [1] (setting [3]) turned out to be 15.1 nM. In assay [2] (setting [4]), the EC50 stood at 15.7 nM. In the case of `COc1cc(-c2cc3c(s2)c(=O)n(-c2cncc4cnn(C)c24)c(=O)n3CC2(CC#N)CC2)c(Cl)cc1F` [Example 659], the IC50 in assay [1] (setting [3]) came to 40.9 nM.

For the origin of these results see patent US20240116946A1 (Gilead Sciences, Inc., priority 2022, published 2024).
